# From patent US20130122541A1, “MICROORGANISM PRODUCTION OF HIGH-VALUE CHEMICAL PRODUCTS, AND RELATED COMPOSITIONS, METHODS AND SYSTEMS” (The Regents of the University of Colorado, priority 2010, published 2013)
# Where two headings read alike, the source gives them in different places.
# What was measured:
# [1] = tested on: E. coli Mach1-T1R; experiment: MIC of 3-HP, microaerobic 96 well-plate, MOPS minimal media with supplements (Example 36); format: cell-based, Escherichia coli; conditions: increase of the 3-HP MIC, 24 h
# Procedure: 3-HP was obtained from TCI America (Portland, Oreg.). Significant acrylic acid and 2-oxydipropionic contamination was observed via HPLC analysis. Samples were subsequently treated by diethyl ether extraction to remove acrylic acid and a portion of the 2-oxydipropionic contaminants. Samples were then neutralized with 10 M NaOH to a final pH of 7.0. […] The working stock solution was used for the selection, growth rates and MIC evaluations in this example.
# Overnight cultures of strains were grown in 5 ml LB (with antibiotic where appropriate). A 1 v/v % was used to inoculate a 15 ml conical tube filled to the top with MOPS minimal media and capped. After the cells reached mid exponential phase, the culture was diluted to an OD600 of 0.200. The cells were further diluted 1:20 and a 10 ul aliquot was used to inoculate each well (˜10^4 cells per well).
# [2] = tested on: E. coli K12; experiment: microbe, parasite or virus in culture; conditions: Escherichia coli, K12, 24 h, read-out: Minimum inhibitory concentration (MIC) of 3-HP for E. coli K12 in M9 minimal media supplemented with the substance
# [3] = tested on: Yeast strains (S288C background); experiment: microbe, parasite or virus in culture; format: cell-based, Saccharomyces cerevisiae; conditions: for MIC: Saccharomyces cerevisiae, read-out: Average MIC Assay Result (g/L 3-HP), MIC of 3-HP; for MIC / average MIC Assay Result (g/L 3-HP): S288C, SD media plus the named supplement(s); for average MIC Assay Result (g/L 3-HP): MIC of 3-HP
# Procedure: The minimum inhibitory concentration (MIC) was determined aerobically in a 96 well-plate format. […] Media supplements were added according to levels reported in the Supplements Table, where specified. Overnight cultures of strains were grown in triplicate in 5 mL SD media with vitamins (Methods in Enzymology vol. 350, page 17 (2002)). A 1% (v/v) inoculum was introduced into a 5 ml culture of SD minimal media without vitamins. After the cells reached mid-exponential phase, the culture was diluted to an OD600 of 0.200. The cells were further diluted 1:5 and a 10 μL aliquot was used to inoculate each well of a 96 well plate (˜10^4 cells per well) to total volume of 100 uL. […] Plates were incubated for 72 hours at 30 C.
# [4] = tested on: Yeast strains (S288C background); experiment: microbe, parasite or virus in culture; format: cell-based, Saccharomyces cerevisiae; conditions: for average MIC Assay Result (g/L 3-HP): MIC of 3-HP; for average MIC Assay Result (g/L 3-HP) / MIC: S288C, SD media plus the named supplement(s); for MIC: Saccharomyces cerevisiae, read-out: Average MIC Assay Result (g/L 3-HP), MIC of 3-HP
# Procedure: The minimum inhibitory concentration (MIC) was determined anaerobically in a 96 well-plate format. […] A 1% (v/v) inoculum was introduced into a 5 ml culture of SD minimal media without vitamins. After the cells reached mid-exponential phase, the culture was diluted to an OD600 of 0.200. The cells were further diluted 1:5 and a 10 μL aliquot was used to inoculate each well of a 96 well plate (˜10^4 cells per well) to total volume of 100 uL. […] Plates were incubated for 72 hours at 30 C. […] Plates were sealed in biobag anaerobic chambers that contained gas generators for anaerobic conditions and incubated for 72 hours at 30 C.
# [5] = tested on: E. coli; experiment: microbe, parasite or virus in culture; format: cell-based
# Procedure: (§1) For MIC evaluations, the final results are expressed in chemical agent concentrations determined by analysis of the stock solution by HPLC (i.e., see Subsection IIIb).
# (§2) The minimum inhibitory concentration (MIC) was determined aerobically in a 96 well-plate format. […] Media supplements were added according to levels reported in the Supplements Table, where specified. Overnight cultures of strains were grown in triplicate in 5 mL LB (with antibiotic where appropriate). A 1% (v/v) inoculum was introduced into a 5 ml culture of M9 minimal media.
# [6] = tested on: E. coli; experiment: microbe, parasite or virus in culture; format: cell-based; conditions: anaerobic; for % Increase Over Control: 3-HP MIC with named supplement(s) vs BW25113 in M9 without supplement; for MIC Assay Result (g/L 3-HP): MIC of 3-HP, BW25113, M9 media plus the named supplement(s), 24-hour
# Procedure: as §1
# as §2, with “anaerobically” for “aerobically”
# [7] = tested on: B. subtilis; experiment: MIC evaluation of 3-HP, B. subtilis aerobic, M9 media + glutamate, 96 well-plate, 24 h (Common Methods); format: cell-based; conditions: for Avg 24 hr ΔOD600: 3HP tolerance, B. subtilis 168, M9 + glu + trp plus the named supplement(s); for % Increase Over Control: ΔOD600 with named supplement(s) vs B. subtilis 168 without supplement
# Procedure: as §1
# as §2, with “Table” for “Table,”, “media+glutamate.” for “media.”
# [8] = 3-HP MIC with named supplement(s) vs S288C in SD without supplement, aerobic
# [9] = 3-HP MIC with named supplement(s) vs S288C in SD without supplement, anaerobic
# [10] = MIC of 3-HP for strain BW25113, M9 media with the named supplement(s), aerobic, 24-hour MIC evaluation
# [11] = increase of 3-HP MIC over BW25113 in M9 without supplements, M9 media with the named supplement(s), aerobic
compound,measurement,setting,value
N[C@@H](Cc1c[nH]c2ccccc12)C(=O)O [tryptophan],MIC increase resulting from supplementation,[1],33%
NCCCCN [putrescine],MIC,[2],40 mg/mL
CCC(=O)C(=O)O [oxobutanoate],MIC increase resulting from supplementation,[1],7%
N[C@@H](CC(=O)O)C(=O)O [Aspartate],% Increase Over Control,[3]; [8],26%
same,MIC,[3]; aerobic,57 g/L
N[C@@H](CCO)C(=O)O [homoserine],MIC increase resulting from supplementation,[1],33%
CCC(=O)C(=O)O [2-oxobutyrate (B)],% Increase Over Control,[4]; [9],2%
same,average MIC Assay Result (g/L 3-HP),[4]; anaerobic,38 g/L
same,% Increase Over Control,[3]; [8],11%
same,average MIC Assay Result (g/L 3-HP),[3]; aerobic,50 g/L
NC(=O)NCCC[C@H](N)C(=O)O [Citrulline (C)],average MIC Assay Result (g/L 3-HP),[5]; [10],30 g/L 3-HP
same,% Increase Over Control,[5]; [11],9%
same,% Increase Over Control,[4]; [9],158%
same,average MIC Assay Result (g/L 3-HP),[4]; anaerobic,97 g/L
same,% Increase Over Control,[3]; [8],28%
same,average MIC Assay Result (g/L 3-HP),[3]; aerobic,58 g/L
CSCC[C@H](N)C(=O)O [Methionine (B)],% Increase Over Control,[5],36%
same,average MIC Assay Result (g/L 3-HP),[5],38 g/L 3-HP
same,% Increase Over Control,[4],167%
same,% Increase Over Control,[3],59%
NCCCCNCCCN [Spermidine (C)],average MIC Assay Result (g/L 3-HP),[5]; [10],40 g/L 3-HP
same,% Increase Over Control,[4]; [9],60%
same,MIC,[4]; anaerobic,60 g/L
NCCCC[C@H](N)C(=O)O [Lysine (D)],average MIC Assay Result (g/L 3-HP),[5]; [10],37 g/L 3-HP
same,% Increase Over Control,[5]; [11],33%
same,% Increase Over Control,[4]; [9],20%
same,average MIC Assay Result (g/L 3-HP),[4]; anaerobic,45 g/L
same,% Increase Over Control,[6],39%
same,MIC Assay Result (g/L 3-HP),[6],41.7 g/L
NCCCCN [Putrescine(C)],% Increase Over Control,[4],56%
same,% Increase Over Control,[3],22%
C[C@@H](O)[C@H](N)C(=O)O [Threonine (B)],average MIC Assay Result (g/L 3-HP),[5]; [10],32 g/L 3-HP
same,% Increase Over Control,[4]; [9],2%
same,MIC,[4]; anaerobic,38 g/L
Nc1ccc(C(=O)O)cc1 [p-aminobenzoate],Avg 24 hr ΔOD600,[7],0.07
same,% Increase Over Control,[7],89%
Cl.NC1CCSC1=O (stereo not shown) [homocysteine thiolactone hydrochloride],MIC increase resulting from supplementation,[1],60%
NCCCCN [Putrescine (C)],average MIC Assay Result (g/L 3-HP),[5],30 g/L 3-HP
N[C@@H](Cc1ccccc1)C(=O)O [Phenylalanine (A)],average MIC Assay Result (g/L 3-HP),[5]; [10],32 g/L 3-HP
same,% Increase Over Control,[5]; [11],17%
same,% Increase Over Control,[4]; [9],2%
same,MIC,[4]; anaerobic,38 g/L
N[C@@H](CO)C(=O)O [Serine (B)],average MIC Assay Result (g/L 3-HP),[5]; [10],32 g/L 3-HP
same,% Increase Over Control,[5]; [11],17%
same,% Increase Over Control,[4]; [9],20%
same,average MIC Assay Result (g/L 3-HP),[4]; anaerobic,45 g/L
same,% Increase Over Control,[6],7%
same,MIC Assay Result (g/L 3-HP),[6],32.1 g/L
O=C(O)O [Bicarbonate (C)],average MIC Assay Result (g/L 3-HP),[5]; [10],44 g/L 3-HP
same,% Increase Over Control,[5]; [11],59%
same,% Increase Over Control,[4]; [9],140%
same,average MIC Assay Result (g/L 3-HP),[4]; anaerobic,90 g/L
NCCCCCN [cadaverine],MIC,[2],30 mg/mL
N[C@@H](Cc1ccccc1)C(=O)O [phenylalanine],MIC increase resulting from supplementation,[1],33%
NC(CCS)C(=O)O (stereo not shown) [Homocysteine (B)],average MIC Assay Result (g/L 3-HP),[5]; [10],30 g/L 3-HP
same,% Increase Over Control,[5]; [11],9%
same,% Increase Over Control,[4]; [9],7%
same,average MIC Assay Result (g/L 3-HP),[4]; anaerobic,40 g/L
Nc1ccc(C(=O)O)cc1 [p-aminobenzoate (A)],average MIC Assay Result (g/L 3-HP),[5]; [10],35 g/L 3-HP
same,% Increase Over Control,[5]; [11],27%
same,% Increase Over Control,[6],33%
same,MIC Assay Result (g/L 3-HP),[6],40.0 g/L
NNC(=O)c1ccc(O)cc1 [p-hydroxybenzoic acid hydrazide],MIC increase resulting from supplementation,[1],33%
N[C@@H](CCO)C(=O)O [Homoserine (B)],average MIC Assay Result (g/L 3-HP),[5]; [10],35 g/L 3-HP
NCCCCNCCCN [spermidine],MIC,[2],40 mg/mL
same,Avg 24 hr ΔOD600,[7],0.09
same,% Increase Over Control,[7],140%
"O=C(O)c1cccc(O)c1O [2,3-didyroxybenzoic acid, 2,3-dihydroxybenzoic acid]",MIC increase resulting from supplementation,[1],33%
N[C@@H](Cc1ccc(O)cc1)C(=O)O [tyrosine],MIC increase resulting from supplementation,[1],40%
NCCC[C@H](N)C(=O)O [Ornithine (C)],average MIC Assay Result (g/L 3-HP),[5]; [10],30 g/L 3-HP
same,% Increase Over Control,[5]; [11],9%
C[C@@H](O)[C@H](N)C(=O)O [threonine],MIC increase resulting from supplementation,[1],3%
O=C(O)O [Bicarbonate],Avg 24 hr ΔOD600,[7],0.06
same,% Increase Over Control,[7],56%
CSCC[C@H](N)C(=O)O [Methionine],Avg 24 hr ΔOD600,[7],0.15
same,% Increase Over Control,[7],282%
NCC(=O)O [Glycine (B)],% Increase Over Control,[5],3%
same,average MIC Assay Result (g/L 3-HP),[5],28 g/L 3-HP
same,% Increase Over Control,[4]; [9],60%
same,average MIC Assay Result (g/L 3-HP),[4]; anaerobic,60 g/L
same,% Increase Over Control,[3]; [8],11%
same,average MIC Assay Result (g/L 3-HP),[3]; aerobic,50 g/L
O=C(O)CC(O)(CC(=O)O)C(=O)O [Citrate],Avg 24 hr ΔOD600,[7],0.30
same,% Increase Over Control,[7],674%
N[C@@H](Cc1c[nH]c2ccccc12)C(=O)O [Tryptophan (A)],% Increase Over Control,[4]; [9],47%
same,MIC,[4]; anaerobic,55 g/L
same,% Increase Over Control,[3]; [8],20%
same,MIC,[3]; aerobic,54 g/L
O=C(O)C1=C[C@@H](O)[C@@H](O)[C@H](O)C1 [Shikimate (A)],average MIC Assay Result (g/L 3-HP),[5]; [10],28 g/L 3-HP
same,% Increase Over Control,[5]; [11],3%
same,% Increase Over Control,[4]; [9],60%
same,average MIC Assay Result (g/L 3-HP),[4]; anaerobic,60 g/L
same,% Increase Over Control,[3]; [8],78%
same,average MIC Assay Result (g/L 3-HP),[3]; aerobic,80 g/L
NCCCCCN [Cadaverine (C)],average MIC Assay Result (g/L 3-HP),[5]; [10],35 g/L 3-HP
same,% Increase Over Control,[4]; [9],60%
same,MIC,[4]; anaerobic,60 g/L
Nc1nc(=O)c2c([nH]1)NC[C@@H](CNc1ccc(C(=O)N[C@@H](CCC(=O)O)C(=O)O)cc1)N2 [Tetrahydrofolate (A)],average MIC Assay Result (g/L 3-HP),[5]; [10],30 g/L 3-HP
same,% Increase Over Control,[5]; [11],9%
same,% Increase Over Control,[6],33%
same,MIC Assay Result (g/L 3-HP),[6],40.0 g/L
Cc1ncc(CO)c(CO)c1O.Cl [pyridoxine hydrochloride],MIC increase resulting from supplementation,[1],0%
NC(=O)CC[C@H](N)C(=O)O [Glutamine (C)],average MIC Assay Result (g/L 3-HP),[5]; [10],30 g/L 3-HP
same,% Increase Over Control,[5]; [11],9%
CC[C@H](C)[C@H](N)C(=O)O [Isoleucine (B)],average MIC Assay Result (g/L 3-HP),[5]; [10],32 g/L 3-HP
same,% Increase Over Control,[5]; [11],17%
same,% Increase Over Control,[4]; [9],2%
same,average MIC Assay Result (g/L 3-HP),[4]; anaerobic,38 g/L
Nc1ccc(C(=O)O)cc1 [p-aminobenzoic acid],MIC increase resulting from supplementation,[1],7%
